Reference: patent US11286256B2, “Bicyclic inhibitors of histone deacetylase” (Alkermes, Inc., priority 2017, dated 2022)
≈ marks a conversion by molar mass, not a printed value.

Tests used:
HDAC2 [1] = target: T1, HDAC2 (Homo sapiens, UniProt Q92769); experiment: HDAC2 enzymatic inhibition assay in SY5Y cell lysate with HDAC-Glo2 substrate; assay type: cell-based; design: host or cells: SH-SY5Y; conditions: SH-SY5Y cells, 5 h compound incubation, HDAC-Glo 2 reagent
Experimental: HDAC2 Enzymatic Inhibition Assay in SY5Y Cell Lysate with HDAC-Glo2 Substrate
SH-SY5Y cells (Sigma) were cultured in Eagle's Modified Essential Medium supplemented with 10% fetal bovine serum and pen/strep. Twenty-four hours prior to compound dosing 20 uL of cells were plated in white 384 well plates at a density of 1,500 cells/well. Compounds were serially diluted in neat DMSO and then diluted 1:100 v/v into media without FBS and mixed. Media was removed from the plated cells and the diluted compounds in serum free media (1% v/v final DMSO) were added and incubated at 37.0 for five hours. Ten uL of HDAC-Glo 2 reagent with 0.1% Triton X-100 was then added, the plate was mixed and allowed to develop at room temperature for 100 minutes. Plates were then read with a Spectramax LMax luminometer employing a 0.4 s integration time. Dose response curves were constructed with normalized data where CI-994 at 100 uM was defined as 100% inhibition and DMSO alone as 0% inhibition.

HDAC2 [2] = target: T1, HDAC2; experiment: HDAC2 recombinant enzymatic assay; assay type: biochemical; design: purchased BPS Bioscience; conditions: 5 h pre-incubation, 5 nM enzyme; read-out: HDAC recombinant enzymatic IC50 HDAC2
Experimental: (§1) The following describes an assay protocol for measuring the deacetylation of a peptide substrate by the enzymes HDAC2 or HDAC1.
(§2) All recombinant human HDACs were purchased from BPS Bioscience. The substrate, FAM-TSRHK(AC)KL-CONH, was synthesized at NanoSyn. Final assay reactions contained 100 mM HEPES (pH 7.5), 50 mM KCl, 0.1% BSA, 0.01% Triton X-100, 1% DMSO, 1 uM substrate and 5 nM HDAC enzyme. Enzyme and compounds were pre-incubated at 25° C. for 5 hours and reactions were initiated by addition of substrate. 10 uL reactions were incubated for 17 hours at 25° C. and terminated by the addition of 40 uL of buffer containing 100 mM HEPES (pH 7.5), 0.1% BSA, 0.01% Triton X-100 and 0.05% SDS. Substrate and product peptides present in each sample were separated electrophoretically using the LabChip 3000 capillary electrophoresis instrument. Change in the relative fluorescence intensity of the substrate and product peaks reflects enzyme activity. Reaction progress was determined as the product to sum ratio (PSR):P/(S+P), where P is the peak height of the product peptide and S is the peak height of the substrate peptide. Reactions were performed in duplicate at 12 concentrations, (3× serial dilutions starting at 30 uM). IC50 values were calculated using a 4 Parameter Logistic Model.

CYP2D6 = target: T2, CYP2D6 (Homo sapiens, UniProt P10635); experiment: CYP inhibition assay in human liver microsomes (2D6); assay type: in vitro ADME; conditions: for inhibition of CYP2D6 (in words): 10 μM; for inhibition at 10 min, 10 µM: human liver microsomes
T2 construct: Human liver microsomes were obtained from BD Gentest; tissue BD Gentest; host or cells: human liver microsomes
Experimental: (§3) Compounds were tested to evaluate their inhibitory potential on CYP2D6 and CYP3A4 (midazolam) using human liver microsomes. Human liver microsomes were obtained from BD Gentest, and each compound was run in duplicate.
(§4) The test compounds and reference inhibitors (quinidine for 2D6, ketoconazole for 3A4) were plated in a 96-well plate by transferring 8 μL of 10 mM stock solutions of compound in DMSO to 12 μL of acetonitrile. Individual inhibitor spiking solutions were prepared for CYP2D6 and CYP3A4 (8 μL of DMSO stock added to 12 μL of acetonitrile). Next added 400 μL of 0.2 mg/mL HLM to the assay wells and then added 2 μL of 400× test compound into the designated wells on ice. Next, added 200 μL of 0.2 mg/mL HLM to the assay wells and then added 1 μL of reference inhibitor solutions into the designated wells. The following solutions were added (in duplicate) to a 96-well assay plate on ice: The test compounds and reference inhibitors (quinidine for 2D6, ketoconazole for 3A4) were tested using the following experimental procedure:
(§5) 10. Incubate the assay plate at 37° C. 5 min for 3A4, 10 min for 2D6.
(§6) 11. Stop the reaction by adding 120 μL of ACN containing Internal Standard. For CYP3A4, the internal standard is 1′OH-midazolam-D4 (10 μM solution diluted to a final concentration of 0.1 μM by adding 100 μL internal standard stock to 10 mL ACN). For CYP2D6, the internal standard is 1-OH-Bufuralol-maleate-[D9] (49 μM solution diluted to a final concentration of 0.1 μM by adding 20 μL internal standard stock to 10 mL ACN).
(§7) The assessment on CYP isoform inhibition is as follows based on the assay results: if percentage of CYP inhibition is higher than 50%, indicates potent inhibition; if percentage of CYP inhibition is between 30-50%, indicates […]; if percentage of CYP inhibition is less than 30%, indicates slight or no inhibition. If the percentage of CYP inhibition is less than −30%, this indicates the compound may have some kind of activation of this isoform.

HDAC1 = target: T3, HDAC1 (Homo sapiens, UniProt Q13547); experiment: HDAC1 recombinant enzymatic assay; assay type: biochemical; conditions: 5 h pre-incubation, 5 nM enzyme; read-out: HDAC recombinant enzymatic IC50 HDAC1
T3 construct: purchased BPS Bioscience
Experimental: as §1, §2

[3] = Aqueous kinetic solubility measurement; assay type: physicochemical; conditions: for solubility at 1 h: aqueous buffer, kinetic from dmso stock, kinetic, 100 mM phosphate buffer pH 7.4, 1% DMSO
Experimental: Compounds were evaluated for their kinetic solubility in buffer or water. Aliquots of 8 μL of reference and test compound stock solutions (10 mM in DMSO) were added into 792 μL of 100 mM phosphate buffer (0.1 M NaPO4, pH 7.4). Final DMSO concentration is 1%. The sample tubes were shaken for 1 hour (1000 rpm) at room temperature. A calibration curve was prepared using 300 μM spiking solution (SS) in MeOH/ACN(4:1) (SS=add 6 μL 10 mM compound in 194 μL MeOH/ACN(4:1)). Samples were centrifuged for 10 min (12000 rpm) to precipitate undissolved particles, and the supernatants were transferred to a new tube or plate. Supernatants were diluted 10 times and 100 times with 100 mM buffer. Samples were then prepared for analysis by LC-MS/MS (Add 5 μL of compound samples (not diluted, 10 times diluted and 100 times diluted) and standard curve samples to 95 μL of ACN containing internal standard. Internal standards used are Propranolol, Ketoconazole, and Tamoxifen.

CYP3A4 = target: T4, CYP3A4 (Homo sapiens, UniProt P08684); experiment: CYP inhibition assay in human liver microsomes (3A4, midazolam); assay type: in vitro ADME; conditions: for inhibition at 5 min, 10 µM: probe midazolam, human liver microsomes, midazolam
T4 construct: Human liver microsomes were obtained from BD Gentest; tissue BD Gentest; host or cells: human liver microsomes
Experimental: as §3, §4, §5, §6, §7

[4] = system: human erythroid progenitors (CFU-E, BFU-E); experiment: Erythroid CFU assay in human bone marrow cells; assay type: cell-based
Experimental: (§8) Compounds were tested to evaluate the potential effects on human erythroid and myeloid progenitors using colony forming cell assays. Clonogenic progenitors of human erythroid (CFU-E, BFU-E), granulocyte-monocyte (CFU-GM) and multipotential (CFU-GEMM) lineages were assessed in a semi-solid methylcellulose-based media formulation containing rhlL-3 (10 ng/mL), rhGM-SCF (10 ng/mL), rhSCF (50 ng/mL) and Epo (3 U/mL).
(§9) Normal human bone marrow light density cells derived from normal bone marrow (NorCal Biologics, California) and qualified at ReachBio, were stored in the gaseous phase of liquid nitrogen (−152° C.) until required for the assay. On the day of the experiment, the cells were thawed rapidly, the contents of each vial was diluted in 10 mL of Iscove's modified Dulbecco's medium containing 10% fetal bovine serum (IMDM+10% FBS) and washed by centrifugation (approximately 1200 r.p.m. for 10 minutes, room temperature). The supernatant was discarded and the cell pellets resuspended in a known volume of IMDM+10% FBS. A cell count (3% glacial acetic acid) and viability assessment (trypan blue exclusion test) was performed for the bone marrow sample.
(§10) On the day of the experiment, the compounds were dissolved in DMSO to a stock concentration of 10 mM. Serial dilutions were prepared from the stock concentration to achieve concentrations of 2 and 0.4 mM. When added to the methylcellulose-based media at 1:1000 (v/v), the final test concentrations of 10, 2 and 0.4 μM were achieved. Additionally, 5-FU was evaluated at 1.0, 0.1 and 0.01 μg/mL.
(§11) Clonogenic progenitors of the human erythroid (CFU-E and BFU-E) and myeloid (CFU-GM) lineages were set up in the methylcellulose-based media formulations described above. All compounds were added to the medium to give the final desired concentrations (10, 2 and 0.4 μM). 5-Fluorouracil (Sigma Aldrich) was used as a positive control for progenitor proliferation (inhibition of colony growth) and was introduced to the human bone marrow cultures at 1.0, 0.1, and 0.01 μg/mL. Solvent control cultures (containing no compound but 0.1% DMSO) as well as standard controls (containing no compound and no DMSO) were also initiated.
(§12) Human myeloid and erythroid progenitor assays were initiated at 2.0×10^4 cells per culture. Following 14 days in culture, myeloid and erythroid colonies were assessed microscopically and scored by trained personnel. The colonies were divided into the following categories based on size and morphology: CFU-E, BFU-E, CFU-GM and CFU-GEMM.
(§13) The mean±one standard deviation of three replicate cultures was calculated for progenitors of each category (CFU-E, BFU-E, etc.). Two-tailed t-tests were performed to assess if there was a difference in the number of colonies generated between solvent control and treated cultures. Due to the potential subjectivity of colony enumeration, a p value of less than 0.01 is deemed significant. To calculate the concentration of 50% inhibition of colony growth (IC50) for each compound, a dose response curve was generated plotting the log of the compound concentration versus the percentage of control colony growth using XLfit software (IDBS). The concentration of 50% inhibition of colony growth (IC50) was calculated based on the sigmoid curve fit using Dose-Response, One-Site Model formula: y=A+[(B−A)/(1+((C/x)^D))], where A=the initial value (baseline response), B=maximum response, C=center (drug concentration that provokes a response halfway between A and B) and D=slope of the curve at midpoint. Further, plots and additional dose response curves were generated using GraphPad Prism 7.0.
(§14) Erythroid (CFU-E and BFU-E), myeloid (CFU-GM) and multi-potential (CFU-GEMM) colony enumeration was performed by trained personnel. The distribution of colony types as well as general colony and cellular morphology was analyzed. For statistical analysis colony numbers in compound treated cultures were compared to the solvent control cultures. […]

[5] = system: human myeloid progenitors (CFU-GM); experiment: Myeloid CFU assay in human bone marrow cells; assay type: cell-based
Experimental: as §8, §9, §10, §11, §12, §13, §14

[6] = 10 μM, 14 days culture, human bone marrow cells

T1 sequence (Q92769 whole entry): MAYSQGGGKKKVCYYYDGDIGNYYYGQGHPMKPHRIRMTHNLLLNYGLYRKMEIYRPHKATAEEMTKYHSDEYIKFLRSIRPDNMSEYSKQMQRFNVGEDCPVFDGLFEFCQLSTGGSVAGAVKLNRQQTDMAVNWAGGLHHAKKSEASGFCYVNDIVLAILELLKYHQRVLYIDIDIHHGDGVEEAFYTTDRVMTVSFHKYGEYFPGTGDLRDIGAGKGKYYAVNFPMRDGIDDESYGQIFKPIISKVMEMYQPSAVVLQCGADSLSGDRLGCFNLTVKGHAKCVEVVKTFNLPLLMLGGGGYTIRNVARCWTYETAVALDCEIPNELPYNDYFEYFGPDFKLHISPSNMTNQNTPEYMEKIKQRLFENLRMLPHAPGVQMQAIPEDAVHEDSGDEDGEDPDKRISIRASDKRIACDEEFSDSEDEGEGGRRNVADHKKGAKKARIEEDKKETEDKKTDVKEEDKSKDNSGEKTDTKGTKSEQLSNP
T3 sequence (Q13547 whole entry): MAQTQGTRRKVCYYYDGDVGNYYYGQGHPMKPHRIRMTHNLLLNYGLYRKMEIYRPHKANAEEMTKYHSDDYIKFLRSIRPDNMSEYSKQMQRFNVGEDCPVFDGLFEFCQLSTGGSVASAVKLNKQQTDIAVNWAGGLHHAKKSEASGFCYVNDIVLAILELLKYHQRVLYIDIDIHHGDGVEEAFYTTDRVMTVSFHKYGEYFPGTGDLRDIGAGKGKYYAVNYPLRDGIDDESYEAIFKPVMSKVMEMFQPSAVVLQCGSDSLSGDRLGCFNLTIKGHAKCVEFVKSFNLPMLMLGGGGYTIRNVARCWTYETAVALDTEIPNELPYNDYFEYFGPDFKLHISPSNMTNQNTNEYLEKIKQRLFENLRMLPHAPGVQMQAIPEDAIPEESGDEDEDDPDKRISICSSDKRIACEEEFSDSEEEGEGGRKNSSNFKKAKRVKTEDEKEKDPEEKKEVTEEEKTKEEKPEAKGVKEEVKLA
T4 sequence (P08684 whole entry): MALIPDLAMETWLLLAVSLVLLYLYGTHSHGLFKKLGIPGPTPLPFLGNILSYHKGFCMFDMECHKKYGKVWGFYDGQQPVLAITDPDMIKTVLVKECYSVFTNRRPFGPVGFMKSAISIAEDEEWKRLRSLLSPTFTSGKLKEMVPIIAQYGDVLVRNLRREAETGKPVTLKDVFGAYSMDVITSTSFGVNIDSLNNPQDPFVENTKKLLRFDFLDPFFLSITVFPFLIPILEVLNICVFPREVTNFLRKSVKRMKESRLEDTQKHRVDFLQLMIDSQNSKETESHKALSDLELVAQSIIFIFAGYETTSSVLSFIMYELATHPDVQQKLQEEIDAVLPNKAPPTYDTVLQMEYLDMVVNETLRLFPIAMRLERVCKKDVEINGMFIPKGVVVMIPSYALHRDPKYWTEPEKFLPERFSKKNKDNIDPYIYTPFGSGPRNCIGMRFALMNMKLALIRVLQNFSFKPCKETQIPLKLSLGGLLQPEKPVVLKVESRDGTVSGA
T2 sequence (P10635 whole entry): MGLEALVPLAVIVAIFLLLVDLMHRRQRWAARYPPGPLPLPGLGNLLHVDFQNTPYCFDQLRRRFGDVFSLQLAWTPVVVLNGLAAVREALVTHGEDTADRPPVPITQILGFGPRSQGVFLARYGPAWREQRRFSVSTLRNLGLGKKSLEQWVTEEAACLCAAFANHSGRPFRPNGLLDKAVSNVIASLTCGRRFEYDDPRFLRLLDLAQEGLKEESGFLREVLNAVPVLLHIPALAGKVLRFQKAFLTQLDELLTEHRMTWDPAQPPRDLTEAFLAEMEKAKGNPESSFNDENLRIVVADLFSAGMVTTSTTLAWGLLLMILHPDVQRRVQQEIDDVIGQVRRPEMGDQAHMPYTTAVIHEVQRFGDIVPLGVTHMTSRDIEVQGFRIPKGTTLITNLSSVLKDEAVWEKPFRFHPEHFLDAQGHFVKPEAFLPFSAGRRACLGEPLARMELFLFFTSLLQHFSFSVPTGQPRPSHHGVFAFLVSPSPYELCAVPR

Compound: Nc1ccc(-c2ccc(F)cc2)nc1NC(=O)N1Cc2cccnc2C1 [Comparator F]
- IC50 (HDAC2 [1]): 394 nM
- IC50 (HDAC2 [2]): 304 nM
- inhibition of CYP2D6 (in words) (CYP2D6): high levels
- inhibition at 10 min, 10 µM (CYP2D6): 62%
- IC50 (HDAC1): 79 nM
- solubility (in words) [3]: extremely low
- solubility at 1 h [3]: 1 µM (≈ 0.349 µg/mL)
- inhibition at 5 min, 10 µM (CYP3A4): -4%

Compound: Nc1ccc(-c2ccc(F)cc2)nc1NC(=O)N1Cc2ccncc2C1 [Comparator G]
- IC50 (HDAC2 [1]): 639 nM
- IC50 (HDAC2 [2]): 335 nM
- inhibition of CYP2D6 (in words) (CYP2D6): inhibited at high levels
- inhibition at 10 min, 10 µM (CYP2D6): 94%
- IC50 (HDAC1): 143 nM
- solubility at 1 h [3]: 55 µM (≈ 19.2 µg/mL)
- inhibition of CYP3A4 (in words) (CYP3A4; 10 μM): inhibited at high levels
- inhibition at 5 min, 10 µM (CYP3A4): 65%

Compound: Cc1cc2c(cn1)CN(C(=O)Nc1nc(-c3ccc(F)cc3)ccc1N)C2 [Comparator H]
- IC50 (HDAC2 [1]): 621 nM
- IC50 (HDAC2 [2]): 214 nM
- inhibition at 10 min, 10 µM (CYP2D6): 57%
- IC50 (HDAC1): 90 nM
- solubility at 1 h [3]: 78 µM (≈ 28.3 µg/mL)
- inhibition at 5 min, 10 µM (CYP3A4): 28%

Compound: COCc1cc2c(cn1)CN(C(=O)Nc1nc(-c3ccc(F)cc3)ccc1N)C2 [Comparator I]
- IC50 (HDAC2 [1]): 666 nM
- inhibition at 10 min, 10 µM (CYP2D6): 2%
- solubility at 1 h [3]: 121 µM (≈ 47.6 µg/mL)
- inhibition at 5 min, 10 µM (CYP3A4): 33%
- CFU % Control remaining @ 10 μM Erythroid [4, 6]: 23%
- CFU % Control remaining @ 10 μM Myeloid [5, 6]: 59%

Compound: O=c1[nH]cc(F)c(=O)[nH]1 [Compound 5-FU, 5-Fluorouracil]
- inhibitory effects on erythroid colony growth (positive control, in words) ([4]; 1.0, 0.1 and 0.01 μg/mL): exactly as expected
- inhibitory effects on myeloid colony growth (positive control, in words) ([5]; 1.0, 0.1 and 0.01 μg/mL): exactly as expected
